pIC50: −log10 of the molar value. Structures can show the parent of a compound that is named as a salt.
system: IRF pathway of THP-1; assay: Test on the activity of IRF pathway of THP-1 (THP1-Dual reporter cells stimulated with 2'3'-cGAMP); type: cell-based; settings: Homo sapiens, PMA-treated, 2'3'-cGAMP 5 ug/mL, QUANTI-Luc readout, read-out: IC50 of inhibition of the activity of IRF pathway
Description: 0.3 uM of PMA (phorbol myristate acetate, SIGMA, P1585) was added to THP1-Dual™ cells (NF-κB-SEAP IRF-Luc Reporter Monocytes, Invivogen, thpd-nfis), and the cells were cultured at 37° C. for 1 day in RPMI1640 with 10% Fetal Bovine Serum (FBS). A compound with a known concentration was added, and the cells were incubated at room temperature for 1 hour. Mammalian (non-canonical) CDN, cyclic [G(2′,5′)pA(3′,5′)p] (2′3′-cGAMP, Invivogen, tlrl-nacga23) was added to a final concentration of 5 ug/mL, and the cells were cultured at 37° C. On the following day, QUANTI-Luc™ (Secreted luciferase detection medium, Invivogen, rep-qlc) was added to the culture solution and the activity of IRF pathway was measured using a microplate reader. The inhibition ratio at each concentration was determined, where the activity of IRF pathway with no addition of the test compound or 2′3′-cGAMP was defined as 100% inhibition and the activity of IRF pathway with no addition of the test compound and with addition of 2′3′-cGAMP was defined as 0% inhibition. The IC50 value was calculated by sigmoid […] model non-linear regression analysis.

SMILES | pIC50
O=C(C#Cc1ccc(-c2ccc(OC(F)F)cc2)c(C(F)(F)F)c1)N1C[C@@H](O)[C@@H](O)C1 [Example 79] | 6.73
O=C(C#Cc1ccc(-c2ccccn2)cc1)N(CCO)c1ccccc1 [Example 87, N-(2-hydroxyethyl)-N-phenyl-3-[4-(pyridin-2-yl)phenyl]prop-2-ynamide] | 5.79
O=C(C#Cc1ccc(-c2ccccc2)c(C(F)(F)F)c1)N1CCN(C2CC2)CC1 [Example 13] | 5.81
O=C(O)CCN1CCN(C(=O)C#Cc2ccc(-c3ccccc3)c(C(F)(F)F)c2)CC1 [Example 91, 3-(4-{3-[2-(trifluoromethyl)[1,1′-biphenyl]-4-yl]prop-2-ynoyl}piperazin-1-yl)propanoic acid monohydrochloride] | 6.22
O=C(C#Cc1ccc(C2=CCOCC2)c(C(F)(F)F)c1)N1C[C@@H](O)[C@@H](O)C1 [Example 18] | 5.85
CN1CCN(C(=O)C#Cc2ccc(-c3ccccc3)nc2)CC1 [Example 5] | 6.02
O=C(C#Cc1ccc(-c2cccc(OC(F)F)c2)c(C(F)(F)F)c1)N1C[C@@H](O)[C@@H](O)C1 [Example 64] | 6.35
O=C(C#Cc1ccc(-c2cccc(OC(F)F)c2)c(C(F)(F)F)c1)N[C@@H]1COC[C@@H]1O [Example 81] | 7.43
CN(CCO)C(=O)C#Cc1ccc(-c2ccccc2OC(F)(F)F)c(C(F)(F)F)c1 [Example 76] | 7.12
CN1CCN(C(=O)C#Cc2ccc(-c3ccccc3)cn2)CC1 [Example 4] | 6.63
O=C(C#Cc1ccc(-c2ccccc2OC(F)(F)F)c(C(F)(F)F)c1)N1C[C@H](O)[C@@H](O)C1 [Example 70] | 7.46
O=C(C#Cc1cnc(-c2ccccc2)c(C(F)(F)F)c1)N1C[C@@H](O)[C@@H](O)C1 [Example 47, 1-[(3R,4S)-3,4-dihydroxypyrrolidin-1-yl]-3-[6-phenyl-5-(trifluoromethyl)pyridin-3-yl]prop-2-yn-1-one] | 6.56
O=C(C#Cc1ccc(-c2ccccc2)c(C(F)(F)F)c1)N1CCC(O)(CO)CC1 [Example 26] | 6.52
O=C(C#Cc1ccc(-c2ccccc2OC(F)(F)F)c(C(F)(F)F)c1)N1C[C@@H](O)[C@H](O)C1 [Example 66] | 7.32
NS(=O)(=O)CCNC(=O)C#Cc1ccc(-c2ccccc2)c(C(F)(F)F)c1 [Example 30] | 6.80
O=C(C#Cc1ccc(-c2ccccc2OC(F)(F)F)c(C(F)(F)F)c1)N[C@@H]1COC[C@@H]1O [Example 72] | 5.92
O=C(C#Cc1ccc(-c2ccc(Cl)cc2)c(C(F)(F)F)c1)N1C[C@@H](O)[C@@H](O)C1 [Example 84] | 6.36
CN(CC(N)=O)C(=O)C#Cc1ccc(-c2ccccc2)c(C(F)(F)F)c1 [Example 29] | 6.82
CN1CCN(C(=O)C#Cc2cccc(-c3ccccc3)c2)CC1 [Example 2] | 5.96
O=C(C#Cc1ccc(-c2ccccc2)c(C(F)(F)F)c1)N[C@@H]1CCNC1=O [Example 11] | 6.84
O=C(C#Cc1ccc(-c2ccccc2)c(C(F)(F)F)c1)N1CCOCC1 [Example 21] | 6.53

SMILES | pIC50
O=C(C#Cc1ccc(-c2cccc(OC(F)F)c2)c(C(F)(F)F)c1)N[C@H]1COC[C@H]1O [Example 82] | 6.62
O=C(C#Cc1ccc(-c2ccc(OC(F)F)cc2)c(C(F)(F)F)c1)N[C@H]1COC[C@@H]1O [Example 62] | 6.23
CC(C)N1CCN(C(=O)C#Cc2ccc(-c3ccccc3)c(C(F)(F)F)c2)CC1 [Example 15] | 6.63
O=C(C#Cc1cnc(-c2ccc(C(F)(F)F)cc2)c(C(F)(F)F)c1)N1C[C@@H](O)[C@@H](O)C1 [Example 85] | 6.65
CN1CCN(C(=O)C#Cc2ccccc2-c2ccccc2)CC1 [Example 1, 3-([1,1′-biphenyl]-2-yl)-1-(4-methylpiperazin-1-yl)prop-2-yn-1-one] | 4.87
O=C(C#Cc1ccc(-c2ccccc2)c(C(F)(F)F)c1)N1CC(O)C1 [Example 42] | 6.80
O=C(C#Cc1ccc(-c2ccc(OC(F)(F)F)cc2)c(C(F)(F)F)c1)NC[C@H](O)CO [Example 41] | 6.10
O=C(C#Cc1ccc(-c2ccc(OC(F)F)cc2)c(C(F)(F)F)c1)N[C@@H]1COC[C@@H]1O [Example 83] | 6.37
O=C(C#Cc1ccc(-c2ccccc2)c(C(F)(F)F)c1)N(CCO)C1CCOCC1 [Example 51] | 6.74
O=C(C#Cc1ccc(-c2ccccc2)c(C(F)(F)F)c1)N[C@H]1COC[C@@H]1O [Example 10] | 6.74
O=C(C#Cc1ccc(-c2ccccc2OC(F)(F)F)c(C(F)(F)F)c1)N[C@H]1COC[C@@H]1O [Example 67] | 7.42
NC(=O)[C@H](CO)NC(=O)C#Cc1ccc(-c2ccccc2)c(C(F)(F)F)c1 [Example 45, N^2-{3-[2-(trifluoromethyl)[1,1′-biphenyl]-4-yl]prop-2-ynoyl}-L-serinamide] | 7.05
CN1CCN(C(=O)C#Cc2ccc(-c3ccccc3)c(C(F)(F)F)c2)CC1 [Example 3] | 6.81
O=C(C#Cc1ccc(-c2ccccc2)c(C(F)(F)F)c1)N1CCSCC1 [Example 22] | 6.68
NC(=O)N1CCN(C(=O)C#Cc2ccc(-c3ccccc3)c(C(F)(F)F)c2)CC1 [Example 37] | 6.71
O=C(C#Cc1ccc(-c2ccccc2OC(F)(F)F)c(C(F)(F)F)c1)N1C[C@@H](O)[C@@H](O)C1 [Example 71] | 7.37
NC(=O)[C@@H]1[C@@H](O)CCN1C(=O)C#Cc1ccc(-c2ccccc2)c(C(F)(F)F)c1 [Example 25] | 6.80
O=C(C#Cc1ccc(-c2ccccc2)c(C(F)(F)F)c1)N1CC(O)(CO)C1 [Example 9] | 6.94
O=C(C#Cc1ccc(-c2ccccc2OC(F)(F)F)c(C(F)(F)F)c1)NC[C@@H](O)CO [Example 74] | 7.32
COc1ccc(N(CCO)C(=O)C#Cc2ccc(-c3ccccc3)c(C(F)(F)F)c2)cn1 [Example 54] | 7.18

More lines, now with the values ahead:

pIC50 | SMILES
6.21 | CC(C)(C)n1cc(-c2ccc(C#CC(=O)N3C[C@@H](O)[C@@H](O)C3)cc2C(F)(F)F)cn1 [Example 105]
4.93 | O=C(O)C1CCN(C(=O)C#Cc2ccc(-c3ccccc3)c(C(F)(F)F)c2)C1 (stereo not shown) [Example 94]
6.84 | CN(Cc1cc(C#CC(=O)N2C[C@@H](O)[C@@H](O)C2)ccc1-c1ccccc1C(F)(F)F)C1CC1 [Example 123]
6.16 | O=C(C#Cc1ccc(-c2ccccc2)c(OC(F)F)c1)NC[C@H](O)CO [Example 113]
5.26 | CN1CCN(C(=O)C#Cc2ccc(-c3ccncc3)cc2)CC1 [Example 88, 1-(4-methylpiperazin-1-yl)-3-[4-(pyridin-4-yl)phenyl]prop-2-yn-1-one]
6.49 | N#Cc1cc(C#CC(=O)N2C[C@@H](O)[C@@H](O)C2)ccc1-c1ccccc1 [Example 120]
6.05 | Cc1cc(C#CC(=O)N2C[C@@H](O)[C@@H](O)C2)ccc1-c1ccccc1C(F)(F)F [Example 112]
6.08 | O=C(C#Cc1ccc(-c2ccccc2C(F)(F)F)nn1)N1C[C@@H](O)[C@@H](O)C1 [Example 118]
6.37 | O=C(C#Cc1cnc(-c2ccccc2C(F)(F)F)cn1)N1C[C@@H](O)[C@@H](O)C1 [Example 116]
6.45 | O=C(C#Cc1ccc(-c2ccccc2)c(C(F)(F)F)c1)N[C@H]1C[C@@H](O)[C@@H](O)C1 [Example 106, N-[(1r,3R,4S)-3,4-dihydroxycyclopentyl]-3-[2-(trifluoromethyl)[1,1′-biphenyl]-4-yl]prop-2-ynamide]
6.31 | O=C(C#Cc1ccc(-c2ccccc2)c(C(F)(F)F)c1)N[C@@H]1C[C@@H](O)[C@@H](O)C1 [Example 107]
7.15 | O=C(C#Cc1ccc(-c2ccccc2)c(C(F)(F)F)c1)N1CCS(=O)(=O)CC1CO (racemic) [Example 128, rac-(3R)-3-(hydroxymethyl)-4-{3-[2-(trifluoromethyl)[1,1′-biphenyl]-4-yl]prop-2-ynoyl}-1λ^6-thiomorpholine-1,1-dione]
6.75 | N=S1(=O)CCN(C(=O)C#Cc2cnc(-c3ccc(Cl)cc3C(F)(F)F)nc2)CC1 [Example 132]
7.10 | O=C(C#Cc1ccc(-c2ccccc2)c(CN2CCCCC2)c1)N(C[C@@H](O)CO)c1ccccc1 [Example 96, N-[(2R)-2,3-dihydroxypropyl]-N-phenyl-3-{2-[(piperidin-1-yl)methyl][1,1′-biphenyl]-4-yl}prop-2-ynamide]
5.77 | O=C(C#Cc1ccc(-c2cccnc2)cc1)N(CCO)c1ccccc1 [Example 89]
5.34 | O=C(C#Cc1ccc(-c2ccccc2)c(CN2CCOCC2)c1)NC[C@H](O)CO [Example 97]
6.37 | CS(=O)(=O)NCCCN(CCO)C(=O)C#Cc1ccc(-c2ccccc2)c(C(F)(F)F)c1 [Example 130, N-(2-hydroxyethyl)-N-{3-[(methanesulfonyl)amino]propyl}-3-[2-(trifluoromethyl)[1,1′-biphenyl]-4-yl]prop-2-ynamide]
5.70 | CS(=O)(=O)NCc1cc(C#CC(=O)N2C[C@@H](O)[C@@H](O)C2)ccc1-c1ccccc1C(F)(F)F [Example 124]
5.31 | O=C(C#Cc1cn(-c2ccc(F)cc2)c(C(F)(F)F)n1)NC[C@H](O)CO [Example 115]
6.12 | O=C(O)c1ccc2c(c1)N(C(=O)C#Cc1ccc(-c3ccccc3)c(C(F)(F)F)c1)CC2 [Example 92, 1-{3-[2-(trifluoromethyl)[1,1′-biphenyl]-4-yl]prop-2-ynoyl}-2,3-dihydro-1H-indole-6-carboxylic acid]
